Reference: BindingDB's records for doi:10.7270/Q20V8B7J (Nmmlsc, 2009)

Target: Ras-related C3 botulinum toxin substrate 1 (Mus musculus, UniProt P63001)
Experiment: activated mutant Rac1 GTP binding inhibitors, SAR follow-up, biochemical, additional analogs, multiplex bead flow cytometry (AID 2039)

SMILES	Ki
O=C1Nc2c(Br)cccc2C1=C1Nc2ccccc2C1=O	2510 nM
O=C1NC(=O)/C(=C2/C(=O)Nc3ccccc32)N1	1060 nM
O=C1Nc2ccc(Br)cc2C1=C1Nc2ccccc2C1=O	1110 nM
O=C1N=c2ccc(Br)cc2=C1c1[nH]c2ccccc2c1NO [5-bromanyl-3-[3-(oxidanylamino)-1H-indol-2-yl]indol-2-one]	2980 nM
O=C1N=c2c(F)cccc2=C1c1[nH]c2ccccc2c1NO [7-fluoro-3-[3-(hydroxyamino)-1H-indol-2-yl]-2-indolone]	2870 nM
O=C1NC(=S)N/C1=C1\C(=O)Nc2ccccc21 [(3Z)-3-(5-oxo-2-sulfanylideneimidazolidin-4-ylidene)-1H-indol-2-one]	640 nM
